The values below come from PubChem BioAssay AID256 (DTP/NCI, 2004).

Values joined by “and” are separate entries in the source; they are usually repeats but may differ in a detail not shown here. Equal entries are not always repeated. Toxic doses and inconclusive results are not listed.

The assay relates to CD2F1 mice, L1210 leukemia ip, survival T/C. Briefly: NCI In Vivo Anticancer Drug Screen. Data for tumor model L1210 Leukemia (intraperitoneal) in CD2F1 (CDF1) mice. The following applies: higher = longer survival. In short, it runs like this: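 Ratio T/C, where T is the treated-group value and C the vehicle-dosed control value, from mice implanted with a transplantable tumor.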

The mark [1] stands for this setting: endpoint: mean survival time, dose: 100.0 mg/kg/injection, schedule: Q01DX001 (ip), vehicle: saline.
The mark [2] stands for this setting: endpoint: mean survival time, dose: 200.0 mg/kg/injection, schedule: Q01DX001 (ip), vehicle: saline.
[3] abbreviates: endpoint: mean survival time, dose: 400.0 mg/kg/injection, schedule: Q01DX001 (ip), vehicle: saline.
Setting [4] is: endpoint: mean survival time, dose: 100.0 mg/kg/injection, schedule: Q01DX009 (ip), vehicle: saline with Tween-80.
The mark [5] stands for this setting: endpoint: mean survival time, dose: 200.0 mg/kg/injection, schedule: Q01DX009 (ip), vehicle: saline with Tween-80.
[6] abbreviates: endpoint: mean survival time, dose: 400.0 mg/kg/injection, schedule: Q01DX009 (ip), vehicle: saline with Tween-80.
[7] abbreviates: endpoint: mean survival time, dose: 12.5 mg/kg/injection, schedule: Q01DX009 (ip), vehicle: saline with Tween-80.
[8] abbreviates: endpoint: mean survival time, dose: 25.0 mg/kg/injection, schedule: Q01DX009 (ip), vehicle: saline with Tween-80.
[9] abbreviates: endpoint: mean survival time, dose: 50.0 mg/kg/injection, schedule: Q01DX009 (ip), vehicle: saline with Tween-80.
[10] abbreviates: endpoint: mean survival time, dose: 100.0 mg/kg/injection, schedule: Q04DX003 (ip), vehicle: saline with Tween-80.
[11] abbreviates: endpoint: mean survival time, dose: 200.0 mg/kg/injection, schedule: Q04DX003 (ip), vehicle: saline with Tween-80.
[12] abbreviates: endpoint: mean survival time, dose: 400.0 mg/kg/injection, schedule: Q04DX003 (ip), vehicle: saline with Tween-80.

On to `CC(=O)Nc1cscc1NC(C)=O`, for which the T/C (endpoint: median survival time, dose: 12.5 mg/kg/injection, schedule: Q01DX009 (ip), vehicle: saline with Tween-80) was 100 % of control; the T/C (endpoint: median survival time, dose: 25.0 mg/kg/injection, schedule: Q01DX009 (ip), vehicle: saline with Tween-80) is 105 % of control and 111 % of control; the T/C (endpoint: median survival time, dose: 50.0 mg/kg/injection, schedule: Q01DX009 (ip), vehicle: saline with Tween-80) was 91 % of control and 103 % of control; the T/C (endpoint: median survival time, dose: 100.0 mg/kg/injection, schedule: Q01DX009 (ip), vehicle: saline with Tween-80) was 100 % of control and 101 % of control; the T/C (endpoint: median survival time, dose: 200.0 mg/kg/injection, schedule: Q01DX009 (ip), vehicle: saline with Tween-80) is 102 % of control and 103 % of control; the T/C (endpoint: median survival time, dose: 400.0 mg/kg/injection, schedule: Q01DX009 (ip), vehicle: saline with Tween-80) is 103 % of control and 108 % of control.

Take `CC1(C)N=C(N)N=C(N)N1c1ccc(C(=O)Nc2ccc(S(=O)(=O)F)cc2)cc1`: the T/C was 94 % of control under setting [1], 97 % of control under setting [2] and 103 % of control under setting [3].

In the case of `CC(NC=O)c1c[nH]c(=O)[nH]c1=O` (stereo not given), the T/C runs as follows: under setting [4], 100 % of control; under setting [5], 97 % of control; under setting [6], 97 % of control.

On to `O=c1[nH]c(=O)c2ncn(C3OC(CO)C(O)C3O)c2[nH]1.O=c1[nH]c(=O)c2ncn(C3OC(CO)C(O)C3O)c2[nH]1.[NH2-].[NH2-].[Pt+2]` (stereo not given), for which the T/C was 116 % of control (endpoint: mean survival time, dose: 6.25 mg/kg/injection, schedule: Q#A X018 (ip), vehicle: water); 106 % of control (endpoint: mean survival time, dose: 12.5 mg/kg/injection, schedule: Q04DX003 (ip), vehicle: water); 116 % of control (endpoint: mean survival time, dose: 12.5 mg/kg/injection, schedule: Q#A X018 (ip), vehicle: water); 124 % of control (endpoint: mean survival time, dose: 25.0 mg/kg/injection, schedule: Q#A X018 (ip), vehicle: water); 106 % of control (endpoint: mean survival time, dose: 50.0 mg/kg/injection, schedule: Q04DX003 (ip), vehicle: water); 111 % of control (endpoint: mean survival time, dose: 100.0 mg/kg/injection, schedule: Q04DX003 (ip), vehicle: water). Also, the T/C runs as follows: (endpoint: mean survival time, dose: 200.0 mg/kg/injection, schedule: Q04DX003 (ip), vehicle: water) 106 % of control; (endpoint: mean survival time, dose: 400.0 mg/kg/injection, schedule: Q04DX003 (ip), vehicle: water) 118 % of control.

Regarding `c1cnc2c(c1)ccc1ncccc12`, the T/C under setting [7] was 91 % of control, the T/C under setting [8] was 109 % of control and the T/C under setting [9] was 96 % of control.

For `Nc1ncnc2c1ncn2[C@@H](/C=N\O)O[C@@H](/C=N\O)CO`, the T/C (endpoint: median survival time, dose: 12.5 mg/kg/injection, schedule: Q01DX005 (ip), vehicle: water) was 100 % of control; the T/C (endpoint: median survival time, dose: 25.0 mg/kg/injection, schedule: Q01DX005 (ip), vehicle: water) is 96 % of control; the T/C (endpoint: median survival time, dose: 50.0 mg/kg/injection, schedule: Q01DX005 (ip), vehicle: water) is 103 % of control; the T/C (endpoint: median survival time, dose: 100.0 mg/kg/injection, schedule: Q01DX005 (ip), vehicle: water) was 97 % of control; the T/C (endpoint: median survival time, dose: 200.0 mg/kg/injection, schedule: Q01DX005 (ip), vehicle: water) was 90 % of control.

As for `CCCN(CCC)S(=O)(=O)c1ccc(NC(=O)OC2CCCCC2)cc1`, the T/C runs as follows: under setting [1], 93 % of control; under setting [2], 98 % of control; under setting [3], 97 % of control.

Regarding `CCCCCCCC(=O)Nc1ncnc2c1ncn2C1OC(COC(C)=O)C(OC(C)=O)C1OC(C)=O` (stereo not given), the T/C reads like this: (endpoint: mean survival time, dose: 12.5 mg/kg/injection, schedule: Q01DX005 (ip), vehicle: distilled water + Tween-80) 98 % of control; (endpoint: mean survival time, dose: 25.0 mg/kg/injection, schedule: Q01DX005 (ip), vehicle: distilled water + Tween-80) 91 % of control; (endpoint: mean survival time, dose: 50.0 mg/kg/injection, schedule: Q01DX005 (ip), vehicle: distilled water + Tween-80) 98 % of control; (endpoint: mean survival time, dose: 100.0 mg/kg/injection, schedule: Q01DX005 (ip), vehicle: distilled water + Tween-80) 94 % of control.

In the case of `O=S(=O)(Oc1ccccc1)c1ccc(Cl)cc1`, the T/C is, setting by setting: under setting [4], 95 % of control; under setting [10], 98 % of control; under setting [5], 98 % of control; under setting [11], 96 % of control; under setting [6], 98 % of control; under setting [12], 102 % of control.

As for `CN1CCCC1CN1c2ccccc2Sc2ccccc21` (stereo not given), the T/C (endpoint: mean survival time, dose: 100.0 mg/kg/injection, schedule: Q04DX003 (ip), vehicle: saline) is 102 % of control.

On to `COC(=O)c1cccc(C)n1`, for which the T/C reads like this: under setting [4], 108 % of control; under setting [5], 94 % of control; under setting [6], 94 % of control.

`Cc1cccc(SCC(=O)O)c1`: the T/C was 96 % of control (endpoint: mean survival time, dose: 100.0 mg/kg/injection, schedule: Q04DX003 (ip), vehicle: other); 96 % of control (endpoint: mean survival time, dose: 200.0 mg/kg/injection, schedule: Q04DX003 (ip), vehicle: other); 94 % of control (endpoint: mean survival time, dose: 400.0 mg/kg/injection, schedule: Q04DX003 (ip), vehicle: other).

Regarding `CCCCCCCCCCCCNC(=O)C[n+]1cccc(C(=O)NC)c1`, the T/C was 98 % of control (endpoint: mean survival time, dose: 12.5 mg/kg/injection, schedule: Q01DX009 (ip), vehicle: saline); 98 % of control (endpoint: mean survival time, dose: 18.8 mg/kg/injection, schedule: Q04DX003 (ip), vehicle: saline); 101 % of control (endpoint: mean survival time, dose: 25.0 mg/kg/injection, schedule: Q01DX009 (ip), vehicle: saline); 95 % of control (endpoint: mean survival time, dose: 37.5 mg/kg/injection, schedule: Q04DX003 (ip), vehicle: saline); 98 % of control (endpoint: mean survival time, dose: 50.0 mg/kg/injection, schedule: Q01DX009 (ip), vehicle: saline); 101 % of control (endpoint: mean survival time, dose: 75.0 mg/kg/injection, schedule: Q04DX003 (ip), vehicle: saline).

As to `CCOC(=O)/C(C)=C/C(O)CO` (stereo not given), the T/C by setting is: (endpoint: mean survival time, dose: 100.0 mg/kg/injection, schedule: Q01DX009 (ip), vehicle: saline sonified) 96 % of control; under setting [10], 105 % of control; (endpoint: mean survival time, dose: 200.0 mg/kg/injection, schedule: Q01DX009 (ip), vehicle: saline sonified) 95 % of control; under setting [11], 98 % of control; under setting [12], 96 % of control.

For the compound `CN(Cc1ccccc1)C(=O)C(=O)c1c[nH]c2ccccc12`, the T/C is, setting by setting: under setting [4], 95 % of control; under setting [10], 98 % of control; under setting [5], 89 % of control; under setting [11], 87 % of control; under setting [6], 91 % of control; under setting [12], 90 % of control.

Take `[Cl][Pt+2][Cl].[NH-]C1CCC1[NH-]` (stereo not given): the T/C was 111 % of control (endpoint: median survival time, dose: 2.5 mg/kg/injection, schedule: Q04DX003 (ip), vehicle: Klucel (hydroxypropylcellulose) (HPC)); 156 % of control and 158 % of control (endpoint: median survival time, dose: 10.0 mg/kg/injection, schedule: Q04DX003 (ip), vehicle: Klucel (hydroxypropylcellulose) (HPC)); 177 % of control (endpoint: median survival time, dose: 20.0 mg/kg/injection, schedule: Q04DX003 (ip), vehicle: Klucel (hydroxypropylcellulose) (HPC)).

On to `CCC1=C[C@H]2CN(CCc3c([nH]c4ccccc34)[C@@](C(=O)OC)(c3cc4c(cc3OC)N(C)[C@H]3[C@@](O)(C(=O)NC)[C@H](OC(C)=O)[C@]5(CC)C=CCN6CC[C@]43[C@@H]65)C2)C1`, for which the T/C runs as follows: (endpoint: mean survival time, dose: 0.03 mg/kg/injection, schedule: Q01DX009 (ip), vehicle: water) 101 % of control; (endpoint: mean survival time, dose: 0.06 mg/kg/injection, schedule: Q01DX009 (ip), vehicle: water) 111 % of control.

Turning to `CC(C)(CBr)COC(=O)Nc1cccc2ccccc12`, the T/C is 91 % of control under setting [7], 91 % of control under setting [8] and 95 % of control under setting [9].

Regarding `C=C(C)CNC1=C(C)C(=O)C2=C(C1=O)[C@@H](COC(N)=O)[C@]1(OC)[C@@H]3N[C@@H]3CN21`, the T/C was 97 % of control (endpoint: mean survival time, dose: 1.5 mg/kg/injection, schedule: Q01DX001 (ip), vehicle: water); 103 % of control (endpoint: mean survival time, dose: 3.0 mg/kg/injection, schedule: Q01DX001 (ip), vehicle: water); 104 % of control (endpoint: mean survival time, dose: 6.0 mg/kg/injection, schedule: Q01DX001 (ip), vehicle: distilled water + Tween-80); 103 % of control (endpoint: mean survival time, dose: 6.0 mg/kg/injection, schedule: Q01DX001 (ip), vehicle: water); 114 % of control (endpoint: mean survival time, dose: 12.0 mg/kg/injection, schedule: Q01DX001 (ip), vehicle: distilled water + Tween-80); 108 % of control (endpoint: mean survival time, dose: 12.0 mg/kg/injection, schedule: Q01DX001 (ip), vehicle: water). Also, the T/C (endpoint: mean survival time, dose: 48.0 mg/kg/injection, schedule: Q01DX001 (ip), vehicle: distilled water + Tween-80) is 108 % of control.
